In patent US9273014B2, “Bis(fluoroalkyl)-1,4-benzodiazepinone compounds and prodrugs thereof” (Bristol-Myers Squibb Company, priority 2012, dated 2016):
“Also recorded” adds a separate entry of the source.

Assays:
[1] = test system: TALL1 Human T-cell acute lymphoblastic leukemia; assay: Human tumor xenograft model in mice, TALL1; assay type: in vivo; conditions: oral administration, QDx10, LCK = Log Cell Kill
Protocol: (§1) Human Tumor Xenograft Models in Mice
(§2) Mice were fed food and water ad libitum.
(§3) Tumor growth inhibition is calculated as follows: […]
(§4) When death occurred, the day of death was recorded.

[2] = test system: MDA-MB-468 Human Breast Carcinoma; conditions: oral administration, 10-20 mg/kg, QDx15, 10 day-on-2 day-off-5 day on
Protocol: Treatment of each animal was based on individual body weight. Treated animals were checked daily for treatment related toxicity/mortality. Each group of animals was weighed before the initiation of treatment (Wt1) and then again following the last treatment dose (Wt2). The difference in body weight (Wt2−Wt1) provides a measure of treatment-related toxicity.
Statistical evaluations of data were performed using Gehan's generalized Wilcoxon test. Statistical significance was declared at P<0.05.

human tumor xenografts = assay: Human tumor xenograft models in mice (general statement); assay type: in vivo; conditions: orally administered (PO)
Protocol: Mice were fed food and water ad libitum. […] [table] […] When death occurred, the day of death was recorded.

human Notch 3 = human Notch 3 (Homo sapiens, UniProt Q9UM47); assay: Notch-CBF1 Transactivation Assay (Notch 3); assay type: cell-based; conditions: HeLa cells co-transfected with truncated Notch 3 and CBF1 luciferase reporter; 18 hours incubation
human Notch 3, sequence (Q9UM47 40-2321 limits assumed): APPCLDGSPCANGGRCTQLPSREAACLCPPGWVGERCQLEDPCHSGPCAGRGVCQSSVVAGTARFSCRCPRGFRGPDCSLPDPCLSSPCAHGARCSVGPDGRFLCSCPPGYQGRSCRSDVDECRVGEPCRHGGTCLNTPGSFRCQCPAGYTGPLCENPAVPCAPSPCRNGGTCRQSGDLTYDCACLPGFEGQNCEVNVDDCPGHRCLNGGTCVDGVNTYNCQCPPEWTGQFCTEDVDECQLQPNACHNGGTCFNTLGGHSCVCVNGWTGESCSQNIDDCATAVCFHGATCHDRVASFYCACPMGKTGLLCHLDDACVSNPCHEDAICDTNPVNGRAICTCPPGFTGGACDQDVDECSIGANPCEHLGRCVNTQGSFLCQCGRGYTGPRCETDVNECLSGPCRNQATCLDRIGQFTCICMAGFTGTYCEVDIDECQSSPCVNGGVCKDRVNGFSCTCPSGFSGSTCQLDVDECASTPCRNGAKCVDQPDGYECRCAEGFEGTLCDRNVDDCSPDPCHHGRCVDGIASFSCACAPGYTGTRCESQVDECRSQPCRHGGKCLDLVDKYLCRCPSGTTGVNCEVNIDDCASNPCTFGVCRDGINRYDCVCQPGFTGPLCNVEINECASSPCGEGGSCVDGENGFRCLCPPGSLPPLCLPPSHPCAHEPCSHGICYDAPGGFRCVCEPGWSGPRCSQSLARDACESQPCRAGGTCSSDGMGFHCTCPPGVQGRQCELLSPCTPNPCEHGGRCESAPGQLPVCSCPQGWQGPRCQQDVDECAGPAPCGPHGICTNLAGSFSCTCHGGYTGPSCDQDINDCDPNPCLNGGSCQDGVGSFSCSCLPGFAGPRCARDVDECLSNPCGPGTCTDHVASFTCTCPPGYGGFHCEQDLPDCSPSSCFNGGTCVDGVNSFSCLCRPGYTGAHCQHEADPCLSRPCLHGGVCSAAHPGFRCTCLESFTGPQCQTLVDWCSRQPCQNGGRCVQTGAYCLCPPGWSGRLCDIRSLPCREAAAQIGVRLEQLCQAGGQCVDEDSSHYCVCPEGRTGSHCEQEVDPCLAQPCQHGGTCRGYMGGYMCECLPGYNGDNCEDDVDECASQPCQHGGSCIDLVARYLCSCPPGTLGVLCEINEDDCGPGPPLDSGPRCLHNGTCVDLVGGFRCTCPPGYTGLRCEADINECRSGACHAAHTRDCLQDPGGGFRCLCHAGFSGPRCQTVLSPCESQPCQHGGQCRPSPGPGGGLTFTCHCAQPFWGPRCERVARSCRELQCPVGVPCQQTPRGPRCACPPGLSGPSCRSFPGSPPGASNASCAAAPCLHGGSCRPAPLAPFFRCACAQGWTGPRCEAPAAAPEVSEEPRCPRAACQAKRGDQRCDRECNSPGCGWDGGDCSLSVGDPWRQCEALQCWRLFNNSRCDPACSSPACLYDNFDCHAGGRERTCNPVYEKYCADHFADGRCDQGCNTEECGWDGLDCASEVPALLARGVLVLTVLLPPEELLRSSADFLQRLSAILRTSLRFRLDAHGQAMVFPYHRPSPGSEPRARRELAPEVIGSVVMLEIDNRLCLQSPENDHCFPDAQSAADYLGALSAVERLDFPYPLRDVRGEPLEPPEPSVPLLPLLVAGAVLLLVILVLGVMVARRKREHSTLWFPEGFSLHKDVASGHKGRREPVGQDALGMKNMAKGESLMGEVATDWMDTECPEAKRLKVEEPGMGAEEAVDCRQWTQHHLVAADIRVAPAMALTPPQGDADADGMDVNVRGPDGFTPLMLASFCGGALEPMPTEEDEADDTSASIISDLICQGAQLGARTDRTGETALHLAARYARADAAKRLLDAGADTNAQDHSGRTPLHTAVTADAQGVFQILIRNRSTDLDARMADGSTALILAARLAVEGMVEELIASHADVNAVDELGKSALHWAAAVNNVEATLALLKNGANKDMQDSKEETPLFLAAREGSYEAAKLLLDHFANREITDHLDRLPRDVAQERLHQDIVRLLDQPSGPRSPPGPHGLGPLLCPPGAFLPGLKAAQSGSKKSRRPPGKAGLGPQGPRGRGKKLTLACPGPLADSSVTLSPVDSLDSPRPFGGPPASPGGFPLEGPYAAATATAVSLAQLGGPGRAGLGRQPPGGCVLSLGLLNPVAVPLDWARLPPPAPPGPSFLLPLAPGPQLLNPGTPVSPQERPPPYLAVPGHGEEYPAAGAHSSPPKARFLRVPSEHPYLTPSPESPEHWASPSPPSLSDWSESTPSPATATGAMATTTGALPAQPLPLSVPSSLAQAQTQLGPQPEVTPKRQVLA
Source text: Notch-CBF1 Transactivation Assay
The Notch-CBF1 (C-promoter binding factor I) cell based transactivation assay is based on the ability of the released Notch intracellular domain fragments (NICDs) to function as transcription factors in conjunction with CBF1 and other nuclear factors. Luciferase assays were used to measure the antagonism of Notch-CBF1 transcriptional activity. HeLa cervical cancer cells are transiently co-transfected with pCDNA3.1/Hygro plasmids containing truncated Notch 1, Notch 2, Notch 3, or Notch 4 receptors and a PGL3 luciferase reporter vector containing 4 copies of CBF1 binding site. The cells were then tested for Notch-CBF1 activity in the absence or presence of test compounds. HeLa cells, maintained in DMEM (high glucose with HEPES), 1× glutamine/penicillin/streptomycin and 10% Fetal Bovine serum, were transiently transfected in a T175 Flask (4.5×10^6 cells/flask) using the Monster Transfection Kit (Minis #MIR2906) according to manufacturers specifications. Table 9 denotes respective DNA quantity for the transfections.
Assay media (5 μL) containing test compounds in final concentrations ranging from 5 μM to 8.4×10^−5 μM (3 fold serial dilutions) were added to the cells and the cell plates were then incubated for 18 hours at 37° C. and 5% CO2. Control wells contained DMSO vehicle (total counts) or 0.5 μM of an in-house small molecule inhibitor (background counts). Duplicates were used for each sample. Luciferase activity was measured after a 20-minute incubation with 50 μl STEADY-GLO® luciferase reagents according to manufacturer's specifications (Promega, Cat. #E2550) and analyzed by Envision plate reader (PerkinElmer, Boston, Mass.).
The antagonist effect of compounds was expressed as 100×[1−(average sample-average background)/(average total−average background)] where sample is the luciferase activity in the presence of test compound, background is equal to the luciferase activity in the presence of the small molecule inhibitor control and the total is signal induced in DMSO wells.

[3] = test system: MDA-MB-157 Human Breast Carcinoma; assay: Human tumor xenograft model in mice, MDA-MB-157; assay type: in vivo; conditions: oral administration, 10-20 mg/kg, QDx15, 10 day-on-2 day-off-5 day on
Protocol: as §1, §2, §3, §4

in vitro = conditions: human, microsomes, pH 7.4
[4] = human metabolic stability half-life assay; conditions: microsomes, pH 7.4
[5] = Prodrug evaluation: single-dose pharmacokinetics in rats; conditions: rat, oral gavage, dose 3.00 mg/kg
Protocol: Male SPRAGUE DAWLEY® rats (250-300 g) were used for the pharmacokinetic studies. Rats were fasted overnight prior to dosing and fed 4 hrs post dose. In each study, groups of animals (N=2-3) received the test compound by oral gavage. Blood samples (˜0.3 mL) were collected from the jugular vein into K2EDTA-containing tubes at 0.5, 1, 3, 5, 7, and 24 h post dose. Plasma samples, obtained by centrifugation at 4° C. (1500-2000× g), were stored at −20° C. until analysis by LC/MS/MS.
The pharmacokinetic parameters were obtained by non-compartmental analysis of plasma concentration (determined by LC/MS/MS) vs. time data (ThermoKinetica Software version 5.0). The peak concentration (Cmax) and time for Cmax, Tmax, were recorded directly from experimental observations. The area under the curve from time zero to the last sampling time (AUC0-t) was calculated using a combination of linear and log trapezoidal summations. The total plasma clearance (CLTp), steady-state volume of distribution (Vss), apparent elimination half-life (t1/2) and mean residence time (MRT) were estimated after IV administration. […] The absolute oral bioavailability F was estimated as the ratio of dose-normalized AUC values following oral and IV doses.

Row | SMILES | IC50 (human Notch 3) [nM] | half-life (in vitro) [h] | other results
1 | Cc1cccc2c1NC(=O)[C@@H](NC(=O)[C@H](CCC(F)(F)F)[C@H](CCC(F)(F)F)C(N)=O)N=C2c1cccc(F)c1 [Example 1, (2R,3S)—N-((3S)-5-(3-Fluorophenyl)-9-methyl-2-oxo-2,3-dihydro-1H-1,4-benzodiazepin-3-yl)-2,3-bis(3,3,3-trifluoropropyl)succinamide] | 8.5 | – | Antitumor Activity TALL1 (LCK) ([1]; 10-20 mg/kg): >4.3; Antitumor Activity MDA-MB-468 (% TGI) [2]: 98%; antitumor activity in human tumor xenografts implanted in mice (human tumor xenografts): exhibited antitumor activity; also recorded: showed antitumor activity; Antitumor Activity MDA-MB-157 (% TGI) [3]: 91%; half-life at 0.5 µM (in vitro): 1.72 h
2 | CC(C)c1cccc2c1NC(=O)[C@@H](NC(=O)[C@H](CCC(F)(F)F)[C@H](CCC(F)(F)F)C(N)=O)N=C2c1cccc(Cl)c1 [Example 3, (2R,3S)—N-((3S)-5-(3-Chlorophenyl)-9-isopropyl-2-oxo-2,3-dihydro-1H-1,4-benzodiazepin-3-yl)-2,3-bis(3,3,3-trifluoropropyl)succinamide] | 1.9 | 1.22 | Antitumor Activity TALL1 (LCK) ([1]; 10 mg/kg): 4.0; antitumor activity in human tumor xenografts implanted in mice (human tumor xenografts): showed antitumor activity
3 | Cc1cccc2c1NC(=O)[C@@H](NC(=O)[C@H](CCC(F)(F)F)[C@H](CCCC(F)(F)F)C(N)=O)N=C2c1cccc(C(F)(F)F)c1 [Example 18, (2R,3S)—N-((3S)-9-Methyl-2-oxo-5-(3-(trifluoromethyl)phenyl)-2,3-dihydro-1H-1,4-benzodiazepin-3-yl)-3-(4,4,4-trifluorobutyl)-2-(3,3,3-trifluoropropyl)succinamide] | 7.7 | > 2 | –
4 | NC(=O)[C@@H](CCC(F)(F)F)[C@@H](CCC(F)(F)F)C(=O)N[C@H]1N=C(c2ccccc2)c2cccc(OC3CC3)c2NC1=O [Example 19, (2R,3S)—N-((3S)-9-(Cyclopropyloxy)-2-oxo-5-phenyl-2,3-dihydro-1H-1,4-benzodiazepin-3-yl)-2,3-bis(3,3,3-trifluoropropyl)succinamide] | 4 | 1.8 | –
5 | Cc1cccc2c1NC(=O)[C@@H](NC(=O)[C@H](CCC(F)(F)F)[C@H](CCC(F)(F)F)C(N)=O)N=C2c1cccc(C(F)(F)F)c1 [Example 20, (2R,3S)—N-((3S)-9-Methyl-2-oxo-5-(3-(trifluoromethyl)phenyl)-2,3-dihydro-1H-1,4-benzodiazepin-3-yl)-2,3-bis(3,3,3-trifluoropropyl)succinamide] | 1.4 | > 2 | –
6 | Cc1ccccc1C1=N[C@H](NC(=O)[C@H](CCC(F)(F)F)[C@H](CCC(F)(F)F)C(N)=O)C(=O)Nc2c(Cl)cccc21 [Example 21, (2R,3S)—N-((3S)-9-Chloro-5-(2-methylphenyl)-2-oxo-2,3-dihydro-1H-1,4-benzodiazepin-3-yl)-2,3-bis(3,3,3-trifluoropropyl)succinamide] | 6.1 | 1.78 | –
7 | Cc1cccc2c1NC(=O)[C@@H](NC(=O)[C@H](CCC(F)(F)F)[C@H](CCC(F)(F)F)C(N)=O)N=C2c1ccc(F)cc1 [Example 22, (2R,3S)—N-((3S)-5-(4-Fluorophenyl)-9-methyl-2-oxo-2,3-dihydro-1H-1,4-benzodiazepin-3-yl)-2,3-bis(3,3,3-trifluoropropyl)succinamide] | 6.3 | > 2 | –
8 | Cc1cccc2c1NC(=O)[C@@H](NC(=O)[C@H](CCC(F)(F)F)[C@H](CCC(F)(F)F)C(N)=O)N=C2c1ccccc1 [Example 23, (2R,3S)—N-((3S)-9-Methyl-2-oxo-5-phenyl-2,3-dihydro-1H-1,4-benzodiazepin-3-yl)-2,3-bis(3,3,3-trifluoropropyl)succinamide] | 8.3 | 1.68 | –
9 | NC(=O)[C@@H](CCC(F)(F)F)[C@@H](CCC(F)(F)F)C(=O)N[C@H]1N=C(c2ccccc2)c2cccc(C3CC3)c2NC1=O [Example 24, (2R,3S)—N-((3S)-9-Cyclopropyl-2-oxo-5-phenyl-2,3-dihydro-1H-1,4-benzodiazepin-3-yl)-2,3-bis(3,3,3-trifluoropropyl)succinamide] | 2.1 | 1.03 | –
10 | NC(=O)[C@@H](CCC(F)(F)F)[C@@H](CCC(F)(F)F)C(=O)N[C@H]1N=C(c2cccc(C3CC3)c2)c2cccc(Cl)c2NC1=O [Example 25, (2R,3S)—N-((3S)-9-Chloro-5-(3-cyclopropylphenyl)-2-oxo-2,3-dihydro-1H-1,4-benzodiazepin-3-yl)-2,3-bis(3,3,3-trifluoropropyl)succinamide] | 2.9 | > 2 | –
11 | COc1cccc2c1NC(=O)[C@@H](NC(=O)[C@H](CCC(F)(F)F)[C@H](CCC(F)(F)F)C(N)=O)N=C2c1cccc(Cl)c1 [Example 26, (2R,3S)—N-((3S)-5-(3-Chlorophenyl)-9-methoxy-2-oxo-2,3-dihydro-1H-1,4-benzodiazepin-3-yl)-2,3-bis(3,3,3-trifluoropropyl)succinamide] | 3.4 | 1.37 | –
12 | COc1cccc2c1NC(=O)[C@@H](NC(=O)[C@H](CCC(F)(F)F)[C@H](CCC(F)(F)F)C(N)=O)N=C2c1ccc(Cl)cc1 [Example 27, (2R,3S)—N-((3S)-5-(4-Chlorophenyl)-9-methoxy-2-oxo-2,3-dihydro-1H-1,4-benzodiazepin-3-yl)-2,3-bis(3,3,3-trifluoropropyl)succinamide] | – | – | half-life at 0.5 µM [4]: 1.92 h
13 | Cc1cccc(C2=N[C@H](NC(=O)[C@H](CCC(F)(F)F)[C@H](CCC(F)(F)F)C(N)=O)C(=O)Nc3c(Cl)cccc32)c1 [Example 28, (2R,3S)—N-((3S)-9-Chloro-5-(3-methylphenyl)-2-oxo-2,3-dihydro-1H-1,4-benzodiazepin-3-yl)-2,3-bis(3,3,3-trifluoropropyl)succinamide] | 7.2 | 1.63 | –
14 | Cc1ccccc1C1=N[C@H](NC(=O)[C@H](CCC(F)(F)F)[C@H](CCC(F)(F)F)C(N)=O)C(=O)Nc2ccccc21 [Example 31, (2R,3S)—N-((3S)-5-(2-Methylphenyl)-2-oxo-2,3-dihydro-1H-1,4-benzodiazepin-3-yl)-2,3-bis(3,3,3-trifluoropropyl)succinamide] | 4.6 | 1.67 | –
15 | COc1cccc2c1NC(=O)[C@@H](NC(=O)[C@H](CCC(F)(F)F)[C@H](CCC(F)(F)F)C(N)=O)N=C2c1ccc(C(F)(F)F)cn1 [Example 33, (2R,3S)—N-((3S)-9-Methoxy-2-oxo-5-(5-(trifluoromethyl)-2-pyridinyl)-2,3-dihydro-1H-1,4-benzodiazepin-3-yl)-2,3-bis(3,3,3-trifluoropropyl)succinamide] | 7.4 | 1.37 | –
16 | Cc1ccc(C2=N[C@H](NC(=O)[C@H](CCC(F)(F)F)[C@H](CCC(F)(F)F)C(N)=O)C(=O)Nc3ccccc32)cc1 [Example 36, (2R,3S)—N-((3S)-5-(4-Methylphenyl)-2-oxo-2,3-dihydro-1H-1,4-benzodiazepin-3-yl)-2,3-bis(3,3,3-trifluoropropyl)succinamide] | 3 | > 2 | –
17 | NC(=O)[C@@H](CCC(F)(F)F)[C@@H](CCC(F)(F)F)C(=O)N[C@H]1N=C(c2cccc(F)c2)c2cccc(CO)c2NC1=O [Example 37, (2R,3S)—N-((3S)-5-(3-Fluorophenyl)-9-(hydroxymethyl)-2-oxo-2,3-dihydro-1H-1,4-benzodiazepin-3-yl)-2,3-bis(3,3,3-trifluoropropyl)succinamide] | 9.3 | 1.02 | –
18 | Cc1cccc2c1N(COC(=O)Cc1ccc(OP(=O)(O)O)cc1)C(=O)[C@@H](NC(=O)[C@H](CCC(F)(F)F)[C@H](CCC(F)(F)F)C(N)=O)N=C2c1cccc(F)c1 [Example 43, ((3S)-3-(((2R,3S)-3-Carbamoyl-6,6,6-trifluoro-2-(3,3,3-trifluoropropyl)hexanoyl)amino)-5-(3-fluorophenyl)-9-methyl-2-oxo-2,3-dihydro-1H-1,4-benzodiazepin-1-yl)methyl(4-(phosphonooxy)phenyl)acetate] | – | – | % Relative Bioavailability to Example 1 [5]: 35%; AUC0-24 h of Example 1 after Administration of Prodrug [5]: 0.193 µM·h
